Data as given in ChEMBL document CHEMBL1201862, “PubChem BioAssay data set” (2004).
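Exposure lasted 48 hours, with cells grown in 96-well plates and compounds tested at five concentrations. GI50 marks 50% less growth.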 Active and inactive are the calls of the source. Rule as the data show it: active = GI50 up to about 1.1 µM and inactive = higher.

Legend:
Assay in all cases: DTP human tumour cell line panel, 48 h
[1] = test system: 786-0
[2] = test system: A498
[3] = test system: A549
[4] = test system: ACHN
[5] = test system: BT-549
[6] = test system: CAKI-1
[7] = test system: CCRF-CEM
[8] = test system: COLO 205
[9] = test system: EKVX
[10] = test system: HCC 2998
[11] = test system: HCT-116
[12] = test system: HCT-15
[13] = test system: HL-60
[14] = test system: HOP-62
[15] = test system: HOP-92
[16] = test system: HT-29
[17] = test system: Hs-578T
[18] = test system: IGROV-1
[19] = test system: KM12
[20] = test system: M14
[21] = test system: MCF7
[22] = test system: MDA-MB-231
[23] = test system: MDA-MB-435
[24] = test system: MDA-N
[25] = test system: MOLT-4
[26] = test system: Malme-3M
[27] = test system: NCI-H226
[28] = test system: NCI-H23
[29] = test system: NCI-H460
[30] = test system: NCI-H522
[31] = test system: NCI/ADR-RES
[32] = test system: OVCAR-3
[33] = test system: OVCAR-4
[34] = test system: OVCAR-5
[35] = test system: OVCAR-8
[36] = test system: PC-3
[37] = test system: RPMI-8226
[38] = test system: RXF 393
[39] = test system: SF-295
[40] = test system: SF-539
[41] = test system: SK-MEL-28
[42] = test system: SK-MEL-2
[43] = test system: SK-MEL-5
[44] = test system: SK-OV-3
[45] = test system: SN12C
[46] = test system: SNB-19
[47] = test system: SNB-75
[48] = test system: SR
[49] = test system: SW-620
[50] = test system: T47D
[51] = test system: U-251
[52] = test system: UACC-257
[53] = test system: UACC-62
[54] = test system: UO-31

N#C[C@H](c1nc2ccccc2s1)c1nc2ccccc2nc1Cl
GI50 [1]: > 100 µM (inactive) | GI50 [2]: > 100 µM (inactive) | GI50 [3]: 32.4 µM (inactive) | GI50 [4]: 14.2 µM (inactive) | GI50 [5]: 4.79 µM (inactive) | GI50 [6]: > 100 µM (inactive) | GI50 [7]: > 100 µM (inactive) | GI50 [8]: > 100 µM (inactive) | GI50 [9]: > 100 µM (inactive) | GI50 [10]: 2.67 µM (inactive) | GI50 [11]: > 100 µM (inactive) | GI50 [12]: 4.04 µM | GI50 [13]: > 100 µM (inactive) | GI50 [14]: 17.9 µM (inactive) | GI50 [15]: 19.1 µM (inactive) | GI50 [16]: > 100 µM (inactive) | GI50 [17]: 94.6 µM (inactive) | GI50 [18]: > 100 µM (inactive) | GI50 [19]: 80.9 µM (inactive) | GI50 [20]: 15.7 µM (inactive) | GI50 [21]: 5.56 µM (inactive) | GI50 [22]: > 100 µM (inactive) | GI50 [23]: > 100 µM (inactive) | GI50 [24]: > 100 µM (inactive) | GI50 [25]: > 100 µM (inactive) | GI50 [26]: > 100 µM (inactive) | GI50 [27]: > 100 µM (inactive) | GI50 [28]: 15.3 µM (inactive) | GI50 [29]: 18.6 µM (inactive) | GI50 [30]: 57.3 µM (inactive) | GI50 [31]: > 100 µM (inactive) | GI50 [32]: 17.2 µM (inactive) | GI50 [33]: 16.3 µM (inactive) | GI50 [34]: 17.9 µM (inactive) | GI50 [35]: > 100 µM (inactive) | GI50 [36]: 31 µM (inactive) | GI50 [37]: > 100 µM (inactive) | GI50 [38]: 13.4 µM (inactive) | GI50 [39]: 17.1 µM (inactive) | GI50 [40]: 37 µM (inactive) | GI50 [41]: > 100 µM (inactive) | GI50 [42]: 33.7 µM (inactive) | GI50 [43]: > 100 µM (inactive) | GI50 [44]: 23.6 µM (inactive) | GI50 [45]: > 100 µM (inactive) | GI50 [46]: > 100 µM (inactive) | GI50 [47]: > 100 µM (inactive) | GI50 [48]: > 100 µM (inactive) | GI50 [49]: > 100 µM (inactive) | GI50 [50]: > 100 µM (inactive) | GI50 [51]: > 100 µM (inactive) | GI50 [52]: 14.7 µM (inactive) | GI50 [53]: 14.3 µM (inactive) | GI50 [54]: 23.3 µM (inactive)
